Assay [1] concerns P388. Briefly: Activity against P388 lymphocytic leukemia in BDFR-1 mice measured as median survival time (MST) after intraperitoneal administration of 10 mg/kg. It counts as functional, Mus musculus.
The test system of assay [2] is HeLa. The assay is described as follows: Effect on [3H]-Thymidine incorporation by HeLa cells measured as percent incorporation compared to control 3 hr after washing at a concentration of 25 ug/mL. The assay is classed as functional, Homo sapiens.
Assay [3] has as its system HeLa. Briefly: Effect on [3H]-Thymidine incorporation by HeLa cells measured as percent incorporation compared to control in the presence of drug at a concentration of 10 ug/mL. It counts as functional, Homo sapiens.
Assay [4] deals with P388. The assay is described as follows: Activity against P388 lymphocytic leukemia in BDFR-1 mice measured as median survival time (MST) after intraperitoneal administration of 20 mg/kg. It counts as functional, Mus musculus.
The subject of assay [5] is P388. The assay is described as follows: Activity against P388 lymphocytic leukemia in BDFR-1 mice measured as percent increase in lifespan (% ILS) relative to controls after intraperitoneal administration of 40 mg/kg. The assay is classed as functional. Conditions: Mus musculus, P388, ip.
In assay [6] the test system is HeLa. The assay is described as follows: Effect on [3H]thymidine incorporation by HeLa cells measured as percent incorporation compared to control in the presence of drug at a concentration of 25 ug/mL. It counts as functional, Homo sapiens.
Assay [7] relates to HeLa. Briefly: Effect on [3H]-Thymidine incorporation by HeLa cells measured as percent incorporation compared to control 3 hr after washing at a concentration of 10 ug/mL. The assay is classed as functional, Homo sapiens.
Assay [8] has as its system P388. The assay is described as follows: Activity against P388 lymphocytic leukemia in BDFR-1 mice measured as percent increase in lifespan (% ILS) relative to controls after intraperitoneal administration of 10 mg/kg. It counts as functional. The note with it: Mus musculus, P388, ip.
Assay [9] relates to P388. The assay is described as follows: Activity against P388 lymphocytic leukemia in BDFR-1 mice measured as percent increase in lifespan (% ILS) relative to controls after intraperitoneal administration of 5 mg/kg. It counts as functional. Conditions: Mus musculus, P388, ip.
The test system of assay [10] is P388. Briefly: Activity against P388 lymphocytic leukemia in BDFR-1 mice measured as percent increase in lifespan (% ILS) relative to controls after intraperitoneal administration of 20 mg/kg. The assay is classed as functional. The note with it: Mus musculus, P388, ip.
Assay [11] concerns HeLa. Briefly: Effect on [3H]thymidine incorporation by HeLa cells measured as percent incorporation compared to control 3 h after washing at a concentration of 5 ug/mL. It counts as functional, Homo sapiens.
In assay [12] the test system is P388. Briefly: Activity against P388 lymphocytic leukemia in BDFR-1 mice measured as median survival time (MST) after intraperitoneal administration of 40 mg/kg. It counts as functional, Mus musculus.
The test system of assay [13] is P388. Briefly: Activity against P388 lymphocytic leukemia in BDFR-1 mice measured as median survival time (MST) after intraperitoneal administration of 5 mg/kg. The assay is classed as functional, Mus musculus.
Assay [14] has as its system HeLa. Briefly: Effect on [3H]-Thymidine incorporation by HeLa cells measured as percent incorporation compared to control in the presence of drug at a concentration of 5 ug/mL. It counts as functional, Homo sapiens.
For assay [15], the system named is P388. Briefly: Activity against P388 lymphocytic leukemia in BDFR-1 mice measured as median survival time (MST) after intraperitoneal administration of 80 mg/kg. It counts as functional, Mus musculus.
The test system of assay [16] is HeLa. The assay is described as follows: Effect on [3H]thymidine incorporation by HeLa cells measured as percent incorporation compared to control 3 h after washing at a concentration of 25 ug/mL. The assay is classed as functional, Homo sapiens.
Assay [17] deals with P388. Briefly: Activity against P388 lymphocytic leukemia in BDFR-1 mice measured as percent increase in lifespan (% ILS) relative to controls after intraperitoneal administration of 80 mg/kg. The assay is classed as functional. The note with it: Mus musculus, P388, ip.
Assay [18] deals with HeLa. Briefly: Effect on [3H]-Thymidine incorporation by HeLa cells measured as percent incorporation compared to control 3 hr after washing at a concentration of 5 ug/mL. It counts as functional, Homo sapiens.
Assay [19] relates to HeLa. Briefly: Effect on [3H]thymidine incorporation by HeLa cells measured as percent incorporation compared to control in the presence of drug at a concentration of 5 ug/mL. The assay is classed as functional, Homo sapiens.
Assay [20] relates to P388. The assay is described as follows: Activity against P388 lymphocytic leukemia in BDFR-1 mice measured as percent increase in lifespan (% ILS) relative to controls after intraperitoneal administration of 80 mg/kg; Toxic. The arrangement: dose 80 mg/kg. The note with it: Mus musculus, at 80 mg/kg. The assay is classed as functional, organism-based.
Assay [21] has as its system P388. The assay is described as follows: Activity against P388 lymphocytic leukemia in BDFR-1 mice measured as median survival time (MST) after intraperitoneal administration of 2.5 mg/kg. The assay is classed as functional, Mus musculus.
For assay [22], the system named is P388. Briefly: Activity against P388 lymphocytic leukemia in BDFR-1 mice measured as percent increase in lifespan (% ILS) relative to controls after intraperitoneal administration of 2.5 mg/kg. It counts as functional. The note with it: Mus musculus, P388, ip.

The values that follow come from ChEMBL document CHEMBL1123781, “Synthesis and biological properties of some 6H-pyrido[4,3-b]carbazoles” (1987).

For the compound `Cc1c2ccncc2c(C)c2c1[nH]c1ccccc12` [ELLIPTECINE], the MST is recorded as 13 in [1], 13 in assay [4], 16 in assay [12] and 12 in [13]. Further, the Incorporation in assay [2] amounted to 25%; in assay [3], 56%; in assay [6], 8%; in assay [7], 47%; in assay [11] it was 78%; in [14], 65%. The ILS at 40 mg/kg in [5] came to 60%. For the same compound, the ILS at 10 mg/kg in assay [8] came to 30%. In addition, the ILS at 5 mg/kg in assay [9] is 20%. This compound returned an ILS at 20 mg/kg in [10] of 30%.

Take `Cc1c2cnccc2c(CO)c2[nH]c3ccccc3c12`: the MST is 18 in assay [15]; 14.5 in assay [1]; 16.5 in assay [4]; 16.5 in [12]; 13 in assay [13]. In addition, the Incorporation in [16] was 52%; in [6], 22%; in assay [18], 88%; in [19], 67%. The ILS at 40 mg/kg in assay [5] is 65%. The same compound came in with an ILS at 10 mg/kg in assay [8] of 45%. The same compound came in with an increase in lifespan (ILS) at 5 mg/kg in assay [9] of 30%. The compound further yielded an ILS at 20 mg/kg in assay [10] of 65%. In assay [17], this compound showed an ILS at 80 mg/kg of 80%.

For the compound `CNC(=O)OCc1c2ccncc2c(C)c2c1[nH]c1ccccc12`, in assay [20], the ILS result was “Toxic”. Besides, the MST in assay [21] was found to be 18; in [15], 6; in assay [1], 21; in assay [4] it was 15; in assay [12], 10; in [13], 16. For the same compound, the Incorporation came out at 3% in assay [16], 27% in assay [6], 18% in assay [18] and 59% in assay [19]. This compound also came in with an ILS at 40 mg/kg in assay [5] of 0%. Besides, the ILS at 10 mg/kg in assay [8] stood at 110%. Besides, the ILS at 5 mg/kg in assay [9] worked out at 60%. For the same compound, the ILS at 20 mg/kg in [10] amounted to 50%. This compound gave an ILS at 2.5 mg/kg in assay [22] of 80%.
